Where “and” joins values, the source holds several entries; their conditions need not be identical. Identical values can stand only once.
How the values were obtained:
[1] = tested on: NK‐92 cells; assay: Flow cytometry analysis of protein labeling in NK-92 and MDA-MB-231 cells; type: cell-based, human; conditions: 2 h, 37 °C
Experimental: Figure 4 Characterization of qABPs in native proteomes. A) Labeling of GzmA by 5 and 6 in lysates of various cell lines (1 h, 37 °C). B) Stability of 5 and 6 in buffer and cell media (11 h, 37 °C). The hydrolysis of probes was measured by monitoring the production of Cy5 fluorescence signal over time. […] C) Labeling of GzmA by probes 3 -6 in NK-92 cells (2 h, 37 °C). D) Flow cytometry analysis of protein labeling in NK-92 cells by 3 -5. […] E) Flow cytometry analysis of concentration-dependent GzmA labeling in NK-92 cells and S/N of 5 (5 μM, 2 h, 37 °C). […] F) Flow cytometry analysis of protein labeling by 5 in MDA-MB-231 cells co-cultured with NK-92 cells (see Supporting Information for conditions).

[2] = tested on: MDA‐MB‐231 cells co‐cultured with NK‐92 cells; assay: GzmA transfer in NK-92 / MDA-MB-231 coculture; type: cell-based, human; conditions: 5x10^5 MDA-MB-231 with 2x10^6 NK-92 cells, probe 5 μM, 1-6 h, flow cytometry and gel-based analyses
Experimental: Figure 4 Characterization of qABPs in native proteomes. A) Labeling of GzmA by 5 and 6 in lysates of various cell lines (1 h, 37 °C). B) Stability of 5 and 6 in buffer and cell media (11 h, 37 °C). The hydrolysis of probes was measured by monitoring the production of Cy5 fluorescence signal over time. […] C) Labeling of GzmA by probes 3 –6 in NK‐92 cells (2 h, 37 °C). D) Flow cytometry analysis of protein labeling in NK‐92 cells by 3 –5. […] E) Flow cytometry analysis of concentration‐dependent GzmA labeling in NK‐92 cells and S/N of 5 (5 μM, 2 h, 37 °C). […]
Supplementary Figure 5. […] Protein samples were analyzed by SDS-PAGE and in-gel fluorescence scanning for Cy5 signal. […]
Conditions for Figure 4C: Various concentrations of probes 3-6 were incubated with 1x10^6 NK-92 cells for 2 h at 37 °C in a humidified incubator. […] Lysates were collected, protein concentration was measured with PIERCE BCA protein assay and samples were analyzed with in-gel fluorescence and GzmA western blotting. […]
All flow cytometry data were collected on BD LSRFortessa and FACSymphony A5 Cell Analyzers and analyzed with FlowJo software. […] Fixed/Permeabilized cells were then resuspended in appropriate amounts of cell staining buffer (BioLegend #420201) and analyzed with flow cytometry and FlowJo software. […]

IGNR [compound 5]
Cell permeability by flow cytometry (Cy5 signal in NK-92 cells) ([1]; 1x10^6 NK-92 cells, fixed/permeabilized, mean ± SD n = 3): clear Cy5 signal | Concentration dependence of protein labeling in NK-92 cells (flow cytometry) ([1]; NK-92 cells, n = 3): concentration‐dependent protein labeling | S/N ratio (mean fluorescence intensity, intact NK-92 versus MDA-MB-231 cells) ([1]; probe 5 μM, flow cytometry, n = 3): ≈ 4 and 4 | Detection of GzmA transfer from NK-92 cells to MDA-MB-231 cells [2]: able to detect GzmA transfer
